{"source": "patent US5393729A", "about": "“3-aryl-pyrone derivatives” (Bayer Aktiengesellschaft, priority 1992, dated 1995)", "test_system": "Nippostrongylus", "test": "Nippostrongylus in vitro (acetylcholine esterase determination)", "parameters": "species or system Nippostrongylus brasiliensis", "conditions": "read-out: inhibition of the enzyme (full activity)", "method": "Nippostrongylus are isolated from the small intestine of rats and washed with 0.9% of NaCl supplemented with 29 μg/ml sisomycin and 2 μg/ml of clotrimazole. The actual incubation of in each case 5 male and female Nippostrongylus is carried out in 1.0 ml of medium used for determining the activity of acetylcholine esterase. Enzyme determination is by the method of Rapson et al., 1987 (E. B. Rapson, D. C. Jenkins, A. S. Chilwan), Improved detection of anthelmintic activity in vitro screen utilizing adult Nippostrongylus brasiliensis. Parasitol. Res. 1987 73, 190 to 191.\nThe following key is used for the assessment: 3=full activity, 100% inhibition of the enzyme; 2=good activity, more than 75% inhibition; 1=poor activity, less than 50% inhibition."}
{"compound": "CCOC(=O)c1c(C)oc(=O)c(-c2c(C)cc(C)cc2C)c1O", "note": "[Example 1]", "values": [{"measurement": "inhibition at 100 ppm", "value": 100, "unit": "%"}]}
